Tested on: αSyn
Assay: αSyn split NanoBit luciferase (Nluc) oligomerization assay
Assay type: biochemical, human
Conditions: 100 μM compound, 10 μM of each tagged αSyn; for activity in NanoBit complementation αSyn oligomerization assay: full time-course
Procedure: Ten μM αSyn-LgBiT, 10 μM αSyn-SmBiT, and Hsp70 (at 0, 10, or 30 μM), 1 mM MgCl2 and 1 mM ADP were mixed in PBS at pH 7.4 and incubated at 37° C. in a thermal cycler (BioRad DNA Engine PTC-200). At 0, 3, 6, 12 and 24 hours. The NanoBit luciferase activity was quantified using a NanoFuel® GLOW Assay for Oplophorus Luciferases (NanoLight) according to the manufacturer's instructions and read on SpectraMax L Microplate Reader (Molecular Devices) with an 8 minute delay after the addition of substrate and 1 sec integration time reading each well. The luciferase activity was normalized to the reaction without Hsp70 at 24 hour time point.
• 1. αSyn-LgBiT or LgBiT is mixed with αSyn-SmBiT at 10 μM of each (PBS pH 7.4); • 2. Incubate at 37 degree for 24 hours in PCR machine; • 3. Take 10 μL samples at 0/3/6/12/24 hours; • 4. Luminescence measurement is done using Luminometor (with injector) using h-CTZ (40 uM), 2 sec delay, 3 sec integration. Protocol: • 1. αSyn-LgBiT (10 uM) and αSyn-SmBiT (10 uM) are mixed in PBS buffer (pH 7.4); • 2. The reaction mixture is incubated in 37° C. incubator either being shaken (1000 rpm) or still; • 3. Samples are taken from the reaction at 0/3/12/24/36/48/72/96/120/144 h for ThT and Nluc assays; NLuc Assay:
• 1. Mix fusion proteins in PBS buffer (pH 7.4) to create the following three master mixes:
• 2. Dispense 10 μL protein master mix into 384-well plate (Greiner, 781904) using Mantis; • Col 1 & 23: Positive control • Col & 24: Negative control • Col 3-22: Reactions • 3. […] Seal plates using sticky foil (E&K Scientific T790080); • 5. Incubate the sealed plates at 37° C. with heat blocks above and beneath the sealed plates, use dummy plates around the reaction plate, incubate at 37° C. incubator in room N401 for 0-24 h; Day 2. I. Prepare the Plates and Substrate • 6. Cool the plates at room temp for 30 min after 24-hour incubation; • 7. Spin the plates at 500×g for 1 min; • 8. Make substrate mix (NanoLight Cat #325), keep it in darkness; II. Prepare the Plate Reader • 9. Turn on SpectraMaxL, make sure the aperture is in the right position (96/384 well):
To change: Control>Change Aperture>Lift the top panel>Press down the button and turn it to the right position>Put the panel down • 10. Put the P-injector tube into the H2O bottle, wash the injector: Control>Prime P-injector for 30× injections • 11. Remove the P-injector and leave it in the air, then empty the injector: Control>Prime P-injector for 30× injections; • 12. Put the P-injector from the substrate tube, prime the injector: Control>Prime P-injector for 20× injections III. Read the Plates • 13. Nluc assay: • Sample vol: 10 μl (dispensed on day 1) • Substrate vol: 25 μl (NanoLight Cat #325)
The SpectraMaxL will do two rounds of reads, the first round will inject substrates, the second round will read entire 384-well plate and make sure the interval between inject and read for each well is exactly the same (in this protocol, the interval is 8 min exactly)

activity in NanoBit complementation αSyn oligomerization assay	Compound	impact relative to 576755 in NanoBit complementation assay
active	CNC(=O)c1cc(O)ccc1N [Compound 576755, 2-amino-5-hydroxy-N-methylbenzamide]	–
active	CNC(=O)c1cc(O)ccc1N(C)C [Compound 581823, 2-dimethylamino-5-hydroxy-N-methylbenzamide]	–
active	CNC(=O)c1cc(O)ccc1NC [Compound 581858, 2-methylamino-5-hydroxy-N-methylbenzamide]	slightly less impact than compound 576755
active	CNC(=O)c1cc(O)ccc1O [Compound 583854, 2,5-dihydroxy-N-methylbenzamide]	–
